Assay results taken from patent US11524012B1, “Quinolone analogs and their salts, compositions, and method for their use” (Senhwa Biosciences, Inc., priority 2018, dated 2022).

Test: Stability study of lyophilized Compound I with mannitol (Method A / Method B samples)
Format: physicochemical
Settings: Method B sample
Protocol: […] Each 30 mL Type I, clear glass sample vial with 20 mm Freeze Dry Stoppers (Flurotech™ coated) contained 150 mg of Compound I.
At each time point, a vial was removed from the stored condition and reconstituted with 10 mL of D5W and analyzed by HPLC method as discussed in Example 5 at 1 month, 2 months, 3 months, and/or 6 months. In Tables 18-18e, RRT matches the Compounds as shown below.
Sample Preparation—Method A: 10% Mannitol solution was prepared by weighing 200 g±1.0 g of mannitol into glass beaker, adding approximately 1500 mL of WFI (water for injection) to the beaker and stirring until mannitol was dissolved. The mannitol solution was transferred to a 2 L volumetric flask and made to volume with WFI, then poured back to the original beaker to sir and mix further. 1M HCl solution was prepared by adding 16.4 mL of HCl (37%) to a 200 mL volumetric flask containing approximately 100 mL of WFI, adding WFI to make 200 mL in volume, and inverting to mix the prepared solution.
To a tared 2 L Schott bottle containing a magnetic stirrer and wrapped in aluminum foil, 1020 g±1.0 g of the 10% mannitol solution was added. Then, 58.4 g±0.05 g of the 1M HCl solution was added to the 2 L Schott bottle and stirred for approximately 10 minutes. The solution prepared in the 2 L Schott bottle was purged with nitrogen which was continued throughout the manufacturing process. 30.22 g of Compound I (free base) was weighed then added to the 2 L Schott bottle containing 10% mannitol solution and 1 M HCl solution with continual magnetic stirring. The container used to weigh Compound I was rinsed with 3×10 mL of WFI and added to the Schott bottle. After Compound I dissolved (approximately 40 minutes), additional 650 g of WFI was added to the Schott bottle and the solution was stirred for approximately 10 minutes. The pH of the Compound I solution (in Schott bottle) was measured then adjusted to pH 4.5±0.1 using 1 M HCl solution. After each addition of 1 M HCl solution, the solution was stirred for several minutes prior to verifying the pH. Once the pH was adjusted, nitrogen purging was stopped. The pH adjusted Compound I solution was further diluted with WFI to a target weight of 2040 g±1.0 g and stirred.
The final solution (pH adjusted and diluted) was filtered (chain including PVD Fmembrane filter 0.45 μm and 0.22 μm; peristaltic filtration pump by Watson Marlow) in the Bigneat and the bottle containing the filtered solution was sealed. The filtered solution was pumped (Watson Marlow Flexicon PF6-B pump; 100 RPM) into 30 mL Schott Clear Glass vials (10.0 mL filtered solution each). The glass vials were partially stoppered with 20 mm Freeze Dry Stopper Flurotec (Daikyo Seiko) one vial at a time with sterilized utensils inside a fume hood (Envair B101+1.5R) and placed on freeze dryer trays. The freeze dryer trays were transferred into freeze dry chamber and vial probe was positioned (Lyostar II; FTS Kinetics). Lyophilization was performed using the lyophilization cycle listed below. After lyophilization cycle finished, the vials were back filled with N2 and the stopper was placed in situ, wiped down with isopropanol in the fume hood once removed from the freeze dryer, reconciled, then crimped. Seven vials out of 186 sample vials placed under the lyophilization cycle had smashed in the freeze dryer.
Sample Preparation—Method B (dissolved oxygen content ≤1 ppm): 2 L WFI was poured into a Schott bottled and degassed for 30 minutes with N2 until dissolved oxygen content was ≤1 ppm (dissolved oxygen meter and probe; Mettler Toledo). 10% Mannitol solution was prepared by adding […] of mannitol and 1000 mL of degassed WFI to a tared 2 L Schott bottle containing a magnetic stirrer and wrapped in aluminum foil. To the Schott bottle containing mannitol, 15 mL of 2M HCl was added and stirred for approximately 10 minutes. The resulting solution was sparged with N2 while stirring until dissolved oxygen content was ≤1 ppm (approx. 30 min). […]

[1] = −20° C., time not printed (2nd block, col 1)
[2] = −20° C., time not printed (2nd block, col 2)
[3] = −20° C., time not printed (2nd block, col 3)
[4] = −20° C., time not printed (2nd block, col 4)

Cc1cnc(CNC(=O)c2c(=O)c3ccc(N4CCCN(C)CC4)nc3n3c2sc2ccccc23)cn1 [Compound I, 2-(4-Methyl-[1,4]diazepan-1-yl)-5-oxo-5H-7-thia-1,11b-diaza-benzo[c]fluorene-6-carboxylic acid (5-methyl-pyrazin-2-ylmethyl)-amide]
Related Substances RRT 0.88 (25° C./60% RH, 24 months): 0.05%
Related Substances RRT 1.05 (25° C./60% RH, 24 months): 0.16%
Related Substances RRT 1.06 (25° C./60% RH, 24 months): 0.17%
Related Substances Total (25° C./60% RH, 24 months): Total: 0.4%
Water Content USP<921 Method 1c> (25° C./60% RH, 24 months): 1.33%
pH (USP<791>) (25° C./60% RH, 24 months): 4.4
Appearance (25° C./60% RH, Initial): White
Appearance (Reconstituted Solution) (25° C./60% RH, Initial): Clear, colorless
Compound I by HPLC assay (25° C./60% RH, Initial): 100.2%
Related Substances RRT 0.96 (25° C./60% RH, Initial): 0.05%
Related Substances RRT 1.04 (25° C./60% RH, Initial): 0.05%
Related Substances RRT 1.06 (25° C./60% RH, Initial): 0.17%
Related Substances RRT 1.08 (25° C./60% RH, Initial): 0.06%
Related Substances Total (25° C./60% RH, Initial): Total: 0.3%
Water Content USP<921 Method 1c> (25° C./60% RH, Initial): 1.12%
pH (USP<791>) (25° C./60% RH, Initial): 4.6
Appearance (−20° C., 1 month): White powder
Appearance (Reconstituted Solution) (−20° C., 1 month): Clear, colorless
Compound I by HPLC assay (−20° C., 1 month): 100.9%
Reconstitution Time (−20° C., 1 month): 65 s
Related Substances RRT 1.06 (−20° C., 1 month): RRT 1.06: 0.16%
Related Substances RRT 1.08 (−20° C., 1 month): RRT 1.08: 0.06%
Related Substances Total (−20° C., 1 month): Total: 0.2%
Water Content USP<921 Method 1c> (−20° C., 1 month): 1.13%
pH (USP<791>) (−20° C., 1 month): 4.4
Appearance (−20° C., 3 months): Off-white powder
Appearance (Reconstituted Solution) (−20° C., 3 months): Clear, colorless
Compound I by HPLC assay (−20° C., 3 months): 99.5%
Related Substances RRT 1.04 (−20° C., 3 months): RRT 1.04: 0.08%
Related Substances RRT 1.05 (−20° C., 3 months): RRT 1.05: 0.18%
Related Substances Total (−20° C., 3 months): Total: 0.3%
Water Content USP<921 Method 1c> (−20° C., 3 months): 1.33%
pH (USP<791>) (−20° C., 3 months): 4.4
Appearance (−20° C., 6 months): Off-white powder
Appearance (Reconstituted Solution) (−20° C., 6 months): Clear, colorless
Compound I by HPLC assay (−20° C., 6 months): 99.7%
Related Substances RRT 1.05 (−20° C., 6 months): RRT 1.05: 0.13%
Related Substances Total (−20° C., 6 months): Total: 0.1%
Water Content USP<921 Method 1c> (−20° C., 6 months): 1.24%
pH (USP<791>) (−20° C., 6 months): 4.5
Appearance (−20° C., Initial): White powder
Appearance (Reconstituted Solution) (−20° C., Initial): Clear, colorless
Compound I by HPLC assay (−20° C., Initial): 100.2%
Related Substances RRT 0.96 (−20° C., Initial): RRT 0.96: 0.05%
Related Substances RRT 1.04 (−20° C., Initial): RRT 1.04: 0.05%
Related Substances RRT 1.06 (−20° C., Initial): RRT 1.06: 0.17%
Related Substances RRT 1.08 (−20° C., Initial): RRT 1.08: 0.06%
Related Substances Total (−20° C., Initial): Total:0.3%
Water Content USP<921 Method 1c> (−20° C., Initial): 1.12%
pH (USP<791>) (−20° C., Initial): 4.6
Appearance [1]: Off-white powder
Appearance (Reconstituted Solution) [1]: Clear, colorless
Compound I by HPLC assay [1]: 100.8%
Related Substances RRT 1.05 [1]: RRT 1.05: 0.13%
Related Substances Total [1]: Total: 0.1%
Water Content USP<921 Method 1c> [1]: 1.30%
pH (USP<791>) [1]: 4.6
Appearance [2]: Off-white powder
Appearance (Reconstituted Solution) [2]: Clear, colorless
Compound I by HPLC assay [2]: 101.9%
Related Substances RRT 1.05 [2]: RRT 1.05: 0.13%
Related Substances Total [2]: Total: 0.1%
Water Content USP<921 Method 1c> [2]: 1.29%
pH (USP<791>) [2]: 4.5
Appearance [3]: Off-white powder
Appearance (Reconstituted Solution) [3]: Clear, colorless
Compound I by HPLC assay [3]: 101.3%
Related Substances RRT 1.05 [3]: RRT 1.05: 0.12%
Related Substances Total [3]: Total: 0.1%
Water Content USP<921 Method 1c> [3]: 1.10%
pH (USP<791>) [3]: 4.5
Appearance [4]: Off-white powder
Appearance (Reconstituted Solution) [4]: Clear, colorless
Compound I by HPLC assay [4]: 98.1%
Related Substances RRT 1.05 [4]: RRT 1.05: 0.10%
Related Substances Total [4]: Total: 0.1%
Water Content USP<921 Method 1c> [4]: 1.10%
pH (USP<791>) [4]: 4.4
